Legend:
Type in all cases: in vivo
[1] = test system: Brassica campestris L.; assay: Test Example 4: effect on crop by application to foliage (diluvial soil, plastic box); settings: foliage application, 320 g/ha
Summary of the method: (§1)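 Greenhouse plants (25° C. to 30° C., 14 d, diluvial soil) receive a foliar spray of water-diluted emulsifiable formulation at defined g/ha. Grading after 3 weeks uses a six-step herbicidal-ratio scale, with 4 covering 70% to <90% and 1 covering 5% to <20%.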

[2] = test system: Triticum aestivum; assay: as above; settings: foliage application, 320 g/ha
Summary of the method: as §1

[3] = test system: Beta vulgaris ssp. vulgaris; assay: as above; settings: foliage application, 320 g/ha
Summary of the method: as §1

[4] = test system: directly sowed Oryza sativa; assay: as above; settings: foliage application, 320 g/ha
Summary of the method: as §1

[5] = test system: Glycine max; assay: as above; settings: foliage application, 320 g/ha
Summary of the method: as §1

[6] = test system: Zea mays; assay: as above; settings: foliage application, 320 g/ha
Summary of the method: as §1

[7] = test system: directly sowed Oryza sativa; assay: Test Example 3: effect on crop by application to foliage (Wagner pot, water depth 0.1-0.5 cm); settings: Nineteenth Table; application to foliage; application herbicide amount 320 g/ha
Summary of the method: (§2)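 Wagner pot foliar test: sow, grow 14 d (25–30 °C), spray diluted emulsion at set g/ha, score after 3 wk; 0 ≤5%, 5 ≥90% herbicidal ratio.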

[8] = test system: Abutilon theophrasti; assay: Test Example 4: herbicidal effect by application to foliage (diluvial soil, plastic box); settings: foliage application, 320 g/ha
Summary of the method: as §1

[9] = test system: Lolium multiflorum Lam.; assay: as above; settings: foliage application, 320 g/ha
Summary of the method: as §1

[10] = test system: Echinochloa crus-galli var. crus-galli; assay: as above; settings: foliage application, 320 g/ha
Summary of the method: as §1

[11] = test system: Amaranthus retroflexus; assay: as above; settings: foliage application, 320 g/ha
Summary of the method: as §1

[12] = test system: Veronica persica; assay: as above; settings: foliage application, 320 g/ha
Summary of the method: as §1

[13] = test system: Setaria viridis; assay: as above; settings: foliage application, 320 g/ha
Summary of the method: as §1

[14] = test system: Alopecurus myosuroides; assay: as above; settings: foliage application, 320 g/ha
Summary of the method: as §1

[15] = test system: Avena fatua; assay: as above; settings: foliage application, 320 g/ha
Summary of the method: as §1

[16] = test system: Apera spica-venti.; assay: as above; settings: foliage application, 320 g/ha
Summary of the method: as §1

[17] = test system: Digitaria ciliaris; assay: as above; settings: foliage application, 320 g/ha
Summary of the method: as §1

[18] = test system: Stellaria media; assay: as above; settings: foliage application, 320 g/ha
Summary of the method: as §1

[19] = test system: Chenopodium album; assay: as above; settings: foliage application, 320 g/ha
Summary of the method: as §1

[20] = test system: Galium spurium; assay: as above; settings: foliage application, 320 g/ha
Summary of the method: as §1

[21] = test system: Echinochloa crus-galli var. crus-galli; assay: Test Example 3: herbicidal effect by application to foliage (Wagner pot, water depth 0.1-0.5 cm); settings: Nineteenth Table; application to foliage; application herbicide amount 320 g/ha
Summary of the method: as §2

[22] = test system: Cyperus difformis; assay: as above; settings: Nineteenth Table; application to foliage; application herbicide amount 320 g/ha
Summary of the method: as §2

[23] = test system: Leptochloa chinensis; assay: as above; settings: Nineteenth Table; application to foliage; application herbicide amount 320 g/ha
Summary of the method: as §2

Structure (SMILES)	g (Brassica campestris L.) effect on crop grade [1]	e (Triticum aestivum) effect on crop grade [2]	f (Beta vulgaris ssp. vulgaris) effect on crop grade [3]	d (directly sowed Oryza sativa) effect on crop grade [4]	c (Glycine max) effect on crop grade [5]	b (Zea mays) effect on crop grade [6]	b (effect on crop grade) [7]	M (Abutilon theophrasti) herbicidal effect grade [8]	K (Lolium multiflorum Lam.) herbicidal effect grade [9]	H (Echinochloa crus-galli var. crus-galli) herbicidal effect grade [10]	N (Amaranthus retroflexus) herbicidal effect grade [11]	R (Veronica persica) herbicidal effect grade [12]	G (Setaria viridis) herbicidal effect grade [13]	J (Alopecurus myosuroides) herbicidal effect grade [14]	I (Avena fatua) herbicidal effect grade [15]	L (Apera spica-venti.) herbicidal effect grade [16]	F (Digitaria ciliaris) herbicidal effect grade [17]	P (Stellaria media) herbicidal effect grade [18]	O (Chenopodium album) herbicidal effect grade [19]	Q (Galium spurium) herbicidal effect grade [20]	further results
CC(C)[S+]([O-])c1nnc2c(C(=O)Nc3nnnn3C)ccc(C(F)(F)F)n12 (stereo not shown) [2-032]	5 (Herbicidal ratio of 90% or more (almost completely withered))	5 (Herbicidal ratio of 90% or more (almost completely withered))	5 (Herbicidal ratio of 90% or more (almost completely withered))	5 (Herbicidal ratio of 90% or more (almost completely withered))	5 (Herbicidal ratio of 90% or more (almost completely withered))	5 (Herbicidal ratio of 90% or more (almost completely withered))	5 (Herbicidal ratio of 90% or more (almost completely withered))	5 (Herbicidal ratio of 90% or more (almost completely withered))	4 (Herbicidal ratio of 70% or more and less than 90%)	5 (Herbicidal ratio of 90% or more (almost completely withered))	5 (Herbicidal ratio of 90% or more (almost completely withered))	5 (Herbicidal ratio of 90% or more (almost completely withered))	5 (Herbicidal ratio of 90% or more (almost completely withered))	3 (Herbicidal ratio of 40% or more and less than 70%)	5 (Herbicidal ratio of 90% or more (almost completely withered))	5 (Herbicidal ratio of 90% or more (almost completely withered))	5 (Herbicidal ratio of 90% or more (almost completely withered))	5 (Herbicidal ratio of 90% or more (almost completely withered))	5 (Herbicidal ratio of 90% or more (almost completely withered))	5 (Herbicidal ratio of 90% or more (almost completely withered))	H (herbicidal effect grade) [21]: 5 (Herbicidal ratio of 90% or more (almost completely withered)); E (herbicidal effect grade) [22]: 5 (Herbicidal ratio of 90% or more (almost completely withered)); D (herbicidal effect grade) [23]: 5 (Herbicidal ratio of 90% or more (almost completely withered))
Cn1nnnc1NC(=O)c1ccc(C(F)(F)F)n2c(C[S+](C)[O-])nnc12 (stereo not shown) [2-033]	5 (Herbicidal ratio of 90% or more (almost completely withered))	4 (Herbicidal ratio of 70% or more and less than 90%)	5 (Herbicidal ratio of 90% or more (almost completely withered))	5 (Herbicidal ratio of 90% or more (almost completely withered))	4 (Herbicidal ratio of 70% or more and less than 90%)	5 (Herbicidal ratio of 90% or more (almost completely withered))	5 (Herbicidal ratio of 90% or more (almost completely withered))	5 (Herbicidal ratio of 90% or more (almost completely withered))	4 (Herbicidal ratio of 70% or more and less than 90%)	5 (Herbicidal ratio of 90% or more (almost completely withered))	5 (Herbicidal ratio of 90% or more (almost completely withered))	5 (Herbicidal ratio of 90% or more (almost completely withered))	5 (Herbicidal ratio of 90% or more (almost completely withered))	4 (Herbicidal ratio of 70% or more and less than 90%)	5 (Herbicidal ratio of 90% or more (almost completely withered))	5 (Herbicidal ratio of 90% or more (almost completely withered))	5 (Herbicidal ratio of 90% or more (almost completely withered))	5 (Herbicidal ratio of 90% or more (almost completely withered))	5 (Herbicidal ratio of 90% or more (almost completely withered))	5 (Herbicidal ratio of 90% or more (almost completely withered))	H (herbicidal effect grade) [21]: 5 (Herbicidal ratio of 90% or more (almost completely withered)); E (herbicidal effect grade) [22]: 5 (Herbicidal ratio of 90% or more (almost completely withered)); D (herbicidal effect grade) [23]: 5 (Herbicidal ratio of 90% or more (almost completely withered))

— patent publication US9708314B2, “Heterocyclic amide compound” (NISSAN CHEMICAL INDUSTRIES, LTD., priority 2013, dated 2017)
